Test system: primary human mesenchymal stem cells (hMSCs)
Test: Induction of chondrogenesis in primary human mesenchymal stem cells (nodule imaging, Rhodamine B / Nile Red)
Type: cell-based
In short: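 hMSCs (passage 3–6) in incomplete chondrogenic induction medium dosed at 2700–10 nM (96-well) or 5000–2.2 nM (384-well), 0.03% DMSO, for 6 days at 37 °C. Fixed cells stained with Rhodamine B/Nile Red and nodule area imaged, normalized to DMSO wells (fold change). EC50 set against TGF-β3 (10 ng/mL); maximum activity and its dose also reported.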

EC50 (concentration required to induce 50% levels of chondrogenesis vs TGF-β3 positive control, read-out: Conc (nM) of 50% TGF-β3 activity): 10 nM
SMILES: Nc1cncc(-c2ccc3[nH]nc(-c4cc5c(-c6ccoc6)cccc5[nH]4)c3c2)c1 [Compound 311, 5-(3-(4-(Furan-3-yl)-1H-indol-2-yl)-1H-indazol-5-yl)pyridin-3-amine]
Emax (maximum chondrogenesis activity relative to TGF-β3 (10 ng/mL) positive control, read-out: Max. Activity as % TGF-β3 activity): 197%

Source: patent US10604512B2, “3-(1H-indol-2-yl)-1H-indazoles and therapeutic uses thereof” (Samumed, LLC, priority 2015, dated 2020)
